According to patent US6150385A, “1,3,4-thiadiazoles useful for the treatment of CMV infections” (Pharmacia & Upjohn Company, priority 1999, dated 2000):

Each compound was assayed against T1, HCMV polymerase (Human cytomegalovirus, UniProt P08546) (assay: HCMV polymerase assay (scintillation proximity assay)). Conditions: percentage of inhibition at 25 μM concentration in CMV polymerase assay.
T1 construct: made in house; host or cells: SF-9 insect cells infected with recombinant baculovirus
Assay type: biochemical
How it was run: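 Baculovirus/SF-9-expressed HCMV polymerase in 5.4 mM HEPES pH 7.5, 11.7 mM KCl, 4.5 mM MgCl2, 0.36 mg/ml BSA, 90 nM 3H-dTTP, with or without 2 mM CHAPS. Started with 6 nM biotinylated poly(dA)-oligo(dT), 30 min at 25 or 37 °C, EDTA-stopped, read by streptavidin-SPA counting; % inhibition at 25 μM.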

T1 sequence (P08546 whole entry): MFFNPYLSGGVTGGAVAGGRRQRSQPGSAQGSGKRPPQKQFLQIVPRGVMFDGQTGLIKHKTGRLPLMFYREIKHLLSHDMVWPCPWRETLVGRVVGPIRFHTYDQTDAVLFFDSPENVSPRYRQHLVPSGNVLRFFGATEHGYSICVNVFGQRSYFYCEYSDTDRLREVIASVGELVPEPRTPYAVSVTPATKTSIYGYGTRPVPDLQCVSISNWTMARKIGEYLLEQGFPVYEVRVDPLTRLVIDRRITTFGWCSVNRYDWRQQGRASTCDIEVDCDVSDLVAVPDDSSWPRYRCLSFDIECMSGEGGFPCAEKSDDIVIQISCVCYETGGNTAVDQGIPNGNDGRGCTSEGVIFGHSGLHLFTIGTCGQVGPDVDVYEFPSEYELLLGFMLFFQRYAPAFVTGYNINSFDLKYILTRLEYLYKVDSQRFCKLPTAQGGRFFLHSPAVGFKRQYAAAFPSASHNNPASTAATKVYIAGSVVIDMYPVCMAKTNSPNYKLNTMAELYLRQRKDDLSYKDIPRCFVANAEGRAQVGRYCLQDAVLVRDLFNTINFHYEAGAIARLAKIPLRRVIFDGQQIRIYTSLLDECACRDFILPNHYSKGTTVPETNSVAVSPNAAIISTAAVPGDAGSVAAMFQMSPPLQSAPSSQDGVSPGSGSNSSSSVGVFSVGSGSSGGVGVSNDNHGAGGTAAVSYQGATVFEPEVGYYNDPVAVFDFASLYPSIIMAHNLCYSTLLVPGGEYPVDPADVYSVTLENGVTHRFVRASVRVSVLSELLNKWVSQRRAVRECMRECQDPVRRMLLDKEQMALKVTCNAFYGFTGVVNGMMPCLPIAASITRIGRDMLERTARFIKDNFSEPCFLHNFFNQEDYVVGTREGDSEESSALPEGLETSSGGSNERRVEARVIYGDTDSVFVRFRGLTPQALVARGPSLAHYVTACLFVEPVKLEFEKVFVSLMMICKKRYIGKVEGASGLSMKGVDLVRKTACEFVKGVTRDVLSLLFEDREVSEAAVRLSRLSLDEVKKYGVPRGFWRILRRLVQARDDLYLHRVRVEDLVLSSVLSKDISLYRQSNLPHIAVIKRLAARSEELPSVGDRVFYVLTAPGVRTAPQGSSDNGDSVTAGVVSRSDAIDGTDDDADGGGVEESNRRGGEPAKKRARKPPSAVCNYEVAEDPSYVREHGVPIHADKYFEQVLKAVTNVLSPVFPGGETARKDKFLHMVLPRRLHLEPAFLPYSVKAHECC

SMILES	inhibition at 25 µM	% Inhib
O=C(/C=C/c1ccccc1)Nc1nnc(NCCc2ccccc2)s1 [compound 262, (E)-N-[5-(phenethylamino)-1,3,4-thiadiazol-2-yl]-3-phenyl-2-propenamide]	39.5%	
O=C(Nc1nnc(NCc2ccncc2)s1)c1ccc(Cl)c(Cl)c1 [compound 263, 3,4-chloro-N-{5-[(4-pyridinylmethyl)amino]-1,3,4-thiadiazol-2-yl}benzamide]	39.4%	
O=C(Nc1nnc(NCCNc2ccccc2)s1)c1ccc([N+](=O)[O-])o1 [compound 264, N-{5-[(2-anilinoethyl)amino]-1,3,4-thiadiazol-2-yl}-5-nitro-2-furamide]	39.2%	
CC(C)c1cc(C(C)C)c(C(=O)Nc2nnc(NC3CCN(Cc4ccccc4)CC3)s2)c(C(C)C)c1 [compound 265, N-{5-[(1-benzyl-4-piperidinyl)amino]-1,3,4-thiadiazol-2-yl}-2,4,6-triisopropylbenzamide]	39.1%	
CC(C)c1cc(C(C)C)c(C(=O)Nc2nnc(NCc3ccncc3)s2)c(C(C)C)c1 [compound 266, 2,4,6-triisopropyl-N-{5-[(4-pyridinylmethyl)amino]-1,3,4-thiadiazol-2-yl}benzamide]	38.8%	
NS(=O)(=O)c1ccc(CCNc2nnc(NC(=O)c3cc4ccccc4s3)s2)cc1 [compound 267, N-(5-{[4-(aminosulfonyl)phenethyl]amino}-1,3,4-thiadiazol-2-yl)-1-benzothiophene-2-carboxamide]	38.7%	
O=C(/C=C/c1ccccc1Cl)Nc1nnc(NCCc2c[nH]c3ccccc23)s1 [compound 268, (E)-3-(2-chlorophenyl)-N-(5-{[2-(1H-indol-3-yl)ethyl]amino}-1,3,4-thiadiazol-2-yl)-2-propenamide]	38.7%	
O=C(Nc1nnc(NCCc2c[nH]c3ccccc23)s1)c1cc2ccccc2s1 [compound 269, N-(5-{[2-(1H-indol-3-yl)ethyl]amino}-1,3,4-thiadiazol-2-yl)-1-benzothiophene-2-carboxamide]	38.5%	
CCOc1ccc2ccccc2c1C(=O)Nc1nnc(NCCc2ccccc2)s1 [compound 270, 2-ethoxy-N-[5-(phenethylamino)-1,3,4-thiadiazol-2-yl]-1-naphthamide]	38.4%	
O=C(Nc1nnc(NCCc2c[nH]c3ccccc23)s1)c1cccc([N+](=O)[O-])c1 [compound 271, N-(5-{[2-(1H-indol-3-yl)ethyl]amino}-1,3,4-thiadiazol-2-yl)-3-nitrobenzamide]	38.4%	
O=C(Nc1nnc(NCCCn2ccnc2)s1)c1ccc(Br)cc1 [compound 272, 4-bromo-N-(5-{[3-(1H-imidazol-1-yl)propyl]amino}-1,3,4-thiadiazol-2-yl)benzamide]	38.2%	
O=C(Nc1nnc(NCc2ccc3c(c2)OCO3)s1)c1ccc(Br)cc1 [compound 273, N-{5-[(1,3-benzodioxol-5-ylmethyl)amino]-1,3,4-thiadiazol-2-yl}-4-bromobenzamide]	38.1%	
O=C(/C=C/c1ccccc1)Nc1nnc(NC2CCCCCC2)s1 [compound 274, (E)-N-[5-(cycloheptylamino)-1,3,4-thiadiazol-2-yl]-3-phenyl-2-propenamide]	38.1%	
O=C(Nc1nnc(NCCCNC2CCCCC2)s1)c1cc(F)cc(F)c1 [compound 275, N-(5-{[3-(cyclohexylamino)propyl]amino]-1,3,4-thiadiazol-2-yl)-3,5-difluorobenzamide]	37.9%	
O=C(/C=C/c1ccccc1Cl)Nc1nnc(NC2CCC2)s1 [compound 276, (E)-3-(2-chlorophenyl)-N-[5-(cyclobutylamino)-1,3,4-thiadiazol-2-yl]-2-propenamide]	37.9%	
O=C(Nc1nnc(NCCC(c2ccccc2)c2ccccc2)s1)c1cc2ccccc2s1 [compound 277, N-{5-[(3,3-diphenylpropyl)amino]-1,3,4-thiadiazol-2-yl}-1-benzothiophene-2-carboxamide]	37.9%	
O=C(Nc1nnc(NC2CCCCCC2)s1)c1ccc(S(=O)(=O)F)cc1 [compound 278, 4-({[5-(cycloheptylamino)-1,3,4-thiadiazol-2-yl]amino}carbonyl)benzenesulfonyl fluoride]		37.5%
CCCCCCCC/C=C/CCCCCCCC(=O)Nc1nnc(NC2CCc3ccccc32)s1 (stereo not shown) [compound 279, (E)-N-[5-(2,3-dihydro-1H-inden-1-ylamino)-1,3,4-thiadiazol-2-yl]-9-octadecenamide]	37.4%	
COc1ccc(CNc2nnc(NC(=O)c3c(Cl)cccc3Cl)s2)cc1OC [compound 280, 2,6-dichloro-N-{5-[(3,4-dimethoxybenzyl)amino]-1,3,4-thiadiazol-2-yl}benzamide]	37.3%	
O=C(Nc1nnc(NCCC(c2ccccc2)c2ccccc2)s1)c1cc(F)cc(F)c1 [compound 281, N-{5-[(3,3-diphenylpropyl)amino]-1,3,4-thiadiazol-2-yl}-3,5-difluorobenzamide]	37.3%	

SMILES	inhibition at 25 µM	% Inhib
O=C(Nc1nnc(NCCc2ccccc2)s1)c1ccc([N+](=O)[O-])o1 [compound 282, 5-nitro-N-[5-(phenethylamino)-1,3,4-thiadiazol-2-yl]-2-furamide]	37.1%	
CCCCC(CC)CNc1nnc(NC(=O)c2c(Cl)cccc2Cl)s1 (stereo not shown) [compound 283, 2,6-dichloro-N-{5-[(2-ethylhexyl)amino]-1,3,4-thiadiazol-2-yl}benzamide]	37%	
O=C(Nc1nnc(NCCc2c[nH]c3ccccc23)s1)c1ccc(C(F)(F)F)cc1 [compound 284, N-(5-{[2-(1H-indol-3-yl)ethyl]amino}-1,3,4-thiadiazol-2-yl)-4-(trifluoromethyl)benzamide]	36.7%	
CCCCCCCC/C=C/CCCCCCCC(=O)Nc1nnc(NCC2CCCCC2)s1 [compound 285, (E)-N-{5-[(cyclohexylmethyl)amino]-1,3,4-thiadiazol-2-yl}-9-octadecenamide]	36.7%	
CCCCCCCC/C=C/CCCCCCCC(=O)Nc1nnc(NCC(CC)CCCC)s1 (stereo not shown) [compound 286, (E)-N-{5-[(2-ethylhexyl)amino]-1,3,4-thiadiazol-2-yl}-9-octadecenamide]	36.3%	
O=C(Nc1nnc(NC2CC2)s1)c1cc2ccccc2s1 [compound 287, N-[5-(cyclopropylamino)-1,3,4-thiadiazol-2-yl]-1-benzothiophene-2-carboxamide]	36.2%	
O=C(Nc1nnc(NC2CCCCCC2)s1)c1ccc(I)cc1 [compound 288, N-[5-(cycloheptylamino)-1,3,4-thiadiazol-2-yl]-4-iodobenzamide]	36.2%	
O=C(Nc1nnc(NCc2ccncc2)s1)c1ccc(I)cc1 [compound 289, 4-iodo-N-{5-[(4-pyridinylmethyl)amino]-1,3,4-thiadiazol-2-yl}benzamide]	36%	
O=C(/C=C/c1ccccc1)Nc1nnc(NC2CCN(Cc3ccccc3)CC2)s1 [compound 290, (E)-N-{5-[(1-benzyl-4-piperidinyl)amino]-1,3,4-thiadiazol-2-yl}-3-phenyl-2-propenamide]	35.9%	
O=C(Nc1nnc(NCCNc2ccccc2)s1)c1cccc([N+](=O)[O-])c1 [compound 291, N-{5-[(2-anilinoethyl)amino]-1,3,4-thiadiazol-2-yl}-3-nitrobenzamide]	35.7%	
CCSCCNc1nnc(NC(=O)c2c(Cl)cccc2Cl)s1 [compound 292, 2,6-dichloro-N-(5-{[2-(ethylsulfanyl)ethyl]amino}-1,3,4-thiadiazol-2-yl)benzamide]	35.6%	
CCOc1ccc2ccccc2c1C(=O)Nc1nnc(NCCC(=O)OC(C)(C)C)s1 [compound 293, tert-butyl 3-[(5-{[(2-ethoxy-1-naphthyl)carbonyl]amino}-1,3,4-thiadiazol-2-yl)amino]propanoate]	35.5%	
O=C(/C=C/c1ccccc1Cl)Nc1nnc(NCCNc2ccccc2)s1 [compound 294, (E)-N-{5-[(2-anilinoethyl)amino]-1,3,4-thiadiazol-2-yl}-3-(2-chlorophenyl)-2-propenamide]	35.4%	
O=C(Nc1nnc(NCCc2c[nH]c3ccccc23)s1)c1ccc(Cl)c(Cl)c1 [compound 295, 3,4-dichloro-N-(5-{[2-(1H-indol-3-yl)ethyl]amino}-1,3,4-thiadiazol-2-yl)benzamide]	35.4%	
O=C(Nc1nnc(NCCCN2CCCC2=O)s1)c1ccc([N+](=O)[O-])o1 [compound 296, 5-nitro-N-(5-{[3-(2-oxo-1-pyrrolidinyl)propyl]amino}-1,3,4-thiadiazol-2-yl)-2-furamide]	35.1%	
O=C(Nc1nnc(NCCC(c2ccccc2)c2ccccc2)s1)c1ccc(I)cc1 [compound 297, N-{5-[(3,3-diphenylpropyl)amino]-1,3,4-thiadiazol-2-yl}-4-iodobenzamide]	35%	
O=C(Nc1nnc(NCCC(c2ccccc2)c2ccccc2)s1)c1ccc([N+](=O)[O-])o1 [compound 298, N-{5-[(3,3-diphenylpropyl)amino]-1,3,4-thiadiazol-2-yl}-5-nitro-2-furamide]	35%	
CC(C)c1cc(C(C)C)c(C(=O)Nc2nnc(NCCC(c3ccccc3)c3ccccc3)s2)c(C(C)C)c1 [compound 299, N-{5-[(3,3-diphenylpropyl)amino]-1,3,4-thiadiazol-2-yl}-2,4,6-triisopropylbenzamide]	34.9%	
O=C(Nc1nnc(NC2CCCCCC2)s1)c1cc(F)cc(F)c1 [compound 300, N-[5-(cycloheptylamino)-1,3,4-thiadiazol-2-yl]-3,5-difluorobenzamide]	34.9%	
O=C(Nc1nnc(NCc2cccnc2)s1)c1cc2ccccc2s1 [compound 301, N-{5-[(3-pyridinylmethyl)amino]-1,3,4-thiadiazol-2-yl}-1-benzothiophene-2-carboxamide]	34.8%	
